Assays:
Type in all cases: functional
Micrococcus luteus = test: Minimum inhibitory concentration required for the inhibition of Micrococcus luteus
Vibrio alginolyticus = test: Minimum inhibitory concentration required for the inhibition of Vibrio alginolyticus
Fusarium oxysporum = test: Minimum inhibitory concentration required for the inhibition of Fusarium oxysporum

| MIC (Micrococcus luteus) [µg/mL] | MIC (Vibrio alginolyticus) [µg/mL] | MIC (Fusarium oxysporum) [µg/mL] | Compound |
| --- | --- | --- | --- |
| 1000 | 2000 | – | CCCCCCCCCCCCCCCCCCCCCCCCCCCCCC(=O)OC[C@@H]1OC(OCCC[N+](C)(C)C)[C@@H](O)[C@@H](O)[C@@H]1O.[I-] (some centres undefined) |
| 50 | 2000 | – | CCCCCCCCCCCCCCCCCCCCCCCCCC(=O)OC[C@@H]1OC(OCCC[N+](C)(C)C)[C@@H](O)[C@@H](O)[C@@H]1O.[I-] (some centres undefined) |
| 10 | 500 | 500 | CCCCCCCCCCCCCCCCCCCCCC(=O)OC[C@@H]1OC(OCCC[N+](C)(C)C)[C@@H](O)[C@@H](O)[C@@H]1O.[I-] (some centres undefined) |
| 2000 | 2000 | – | CCCCCCCCCCCCCCCCCC(=O)OC[C@@H]1OC(OCCC[N+](C)(C)C)[C@@H](O)[C@@H](O)[C@@H]1O.[I-] (some centres undefined) |
